The record followed here is patent publication US9376420B2 (YUHAN CORPORATION, priority 2012, dated 2016).

The assay concerns the target T1, human LXRβ (Homo sapiens, UniProt P55055).
T1 construct: expressed in transfected cells; host or cells: HEK293 cells (ATCC CRL-1573), transient transfection with pFA-hLXRβ/GAL4 and pUAS
T1 sequence (P55055 222-460 limits assumed): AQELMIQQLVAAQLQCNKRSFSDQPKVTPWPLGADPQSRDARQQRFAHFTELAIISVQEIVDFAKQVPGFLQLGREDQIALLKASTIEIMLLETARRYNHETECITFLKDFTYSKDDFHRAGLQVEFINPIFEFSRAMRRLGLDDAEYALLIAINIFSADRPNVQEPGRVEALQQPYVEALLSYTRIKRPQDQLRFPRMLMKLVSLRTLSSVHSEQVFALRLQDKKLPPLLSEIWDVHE
As to the kind of experiment: Assay for Transcriptional Activity of LXRβ (GAL4-hLXRβ LBD luciferase reporter, transient transfection). It counts as cell-based. The settings on record: HEK293 cells transfected with pFA-hLXRβ/GAL4 and pUAS, 24 hours; for Emax: fold value in comparison with the control (DMSO-treated group); for EC50: increase of transcriptional activity of LXRβ, average of three independent tests. The text has this: The ligand-binding domain (LBD) cDNA of human LXRβ was inserted into an expression vector (pFA, Stratagene, USA) site adjacent to the yeast GAL4 transcription factor DNA binding domain to prepare an expression construct (pFA-hLXRβ/GAL4) (Willey et al., Genes & Development 9 1033-1045 (1995). The GAL4-responsive luciferase reporter plasmid, i.e., pUAS (Stratagene, USA), contained five copies of the GAL4 response element placed adjacent to the promoter and the luciferase reporter gene. The pFA-hLXRβ/GAL4 and pUAS were introduced into mammalian cells through transient transfection, followed by measuring the transcriptional activity of LXRβ.
HEK293 cells (human kidney cells, sATCC, CRL-1573) were incubated at a T-75 flask containing a DMEM supplemented with 10% fetal bovine serum (FBS) in a 37° C., until they reach about 70˜80% confluency. The culture media containing the cells was added to each well of a 96-well plate in a density of 5×10^4 cells per well. The pFA-hLXRβ/GAL4 and pUAS was transfected to the cells using a cationic-lipid transfection reagent (Lipofectamine™, Invitrogen), through culturing at 37° C. for 3 hours for transient transfection according to the manufacturer's instruction. The test compounds were dissolved in dimethyl sulfoxide (DMSO) in the concentrations of 50, 30, 10, 3, 1, 0.3, 0.1, 0.03, and 0.01 μM and then cells were treated with the prepared compound-containing solution (100 μl). The cells were incubated at 37° C. for 24 hours. After removal of the medium from each well, the lysis buffer (25 mM Tricine pH7.8, 2 mM DTT, 2 mM EGTA, 10% glycerol, 1% Triton X-100) was added with the amount of 20 μl per each well, and the plate was stirred at room temperature for 15 minutes. The luciferase reagent (prepared by adding 10 ml of the luciferase buffer (Promega) to 1 vial of the luciferase substrate (Promega)) was added to each well with the amount of 100 μl per well, followed by assaying with a luminometer according to the manufacturer's instruction.
The dose-response curve for calculating the EC50 values of the test compounds on the increase of transcriptional activity of LXRβ was prepared using the known LXR agonist (i.e., N-(2,2,2-trifluoro-ethyl)-N-[4-(2,2,2-trifluoro-1-hydroxy-1-trifluoromethyl-ethyl)-phenyl]-benzenesulfonamide) as a positive control and the vehicle (DMSO) as a negative control. The dose-response curve was produced from the 9-point curve having different concentrations at a 1/2 log unit. The EC50 value of a test compound, which is defined as a concentration for initiating the reaction corresponding to the half value between the Top value (i.e., the maximum value) and the Bottom value (baseline), was calculated according to the following equation. Y=Bottom+(Top-Bottom)/(1+10^((log EC50-X)*Hill Slope)).
In the above equation, Y is the observed value; X is the log concentration; Hill Slope is the slope of the curve; and Top and Bottom are the maximum value of test compound and the baseline value, respectively.
The following tables 1 and 2 show the EC50 values of the test compounds measured as in the above. In the tables 1 and 2, each EC50 value represents an average value obtained from three independent tests.

Regarding `Cc1cc(-n2cnnn2)ncc1-c1ccc(C2CC(C(O)(C(F)(F)F)C(F)(F)F)=NN2c2ccc(F)cc2F)cc1` (stereo not drawn) [Example 394, 1-(2,4-difluoro-phenyl)-5-{4-[4-methyl-6-(tetrazol-1-yl)-pyridin-3-yl]-phenyl}-3-[di-(trifluoromethyl)-hydroxy-methyl]-4,5-dihydro-1H-pyrazole], the Emax is listed as 50 fold and it took 83 nM to reach a half-maximal effect (EC50).

For `CS(=O)(=O)c1c(F)cc(-c2ccc(C3CC(C(O)(C(F)(F)F)C(F)(F)F)=NN3c3ccc(F)cc3F)cc2)cc1F` (stereo not drawn) [Example 388, 1-(2,4-difluoro-phenyl)-5-(3′,5′-difluoro-4′-methanesulfonyl-biphenyl-4-yl)-3-[di-(trifluoromethyl)-hydroxy-methyl]-4,5-dihydro-1H-pyrazole], the Emax is 25 fold and the EC50 was 60 nM.

Compound `CS(=O)(=O)c1ccc(-c2cccc(C3CC(C(F)(F)C(F)(F)F)=NN3c3ccc(F)cc3F)c2)cc1` (stereo not drawn) [Example 51, 1-(2,4-difluoro-phenyl)-5-(4′-methanesulfonyl-biphenyl-3-yl)-3-pentafluoroethyl-4,5-dihydro-1H-pyrazole] displayed an Emax of 61 fold and an EC50 of 2480 nM.

`CS(=O)(=O)N1CCN(c2ccc(C3CC(C(O)(C(F)(F)F)C(F)(F)F)=NN3c3ccc(F)cc3F)cc2)CC1` (stereo not drawn) [Example 406, 1-(2,4-difluoro-phenyl)-5-[4-(4-methanesulfonyl-piperazin-1-yl)-phenyl]-3-[di-(trifluoromethyl)-hydroxy-methyl]-4,5-dihydro-1H-pyrazole] returned an Emax of 53 fold and an EC50 of 966 nM.

Compound `CN(CCO)S(=O)(=O)c1ccc(-c2cccc(C3CC(C(F)(F)C(F)(F)F)=NN3c3ccc(F)cc3F)c2)cc1` (stereo not drawn) [Example 88, 1-(2,4-difluoro-phenyl)-5-{4′-[(2-hydroxy-ethyl)-methyl-sulfamoyl]-biphenyl-3-yl}-3-pentafluoroethyl-4,5-dihydro-1H-pyrazole] showed an Emax of 72 fold and an EC50 of 819 nM.

In turn, `COc1cc(C)c(-c2ccc(C3CC(C(O)(C(F)(F)F)C(F)(F)F)=NN3c3ccc(F)cc3F)cc2)cn1` (stereo not drawn) [Example 383, 1-(2,4-difluoro-phenyl)-5-[4-(6-methoxy-4-methyl-pyridin-3-yl)-phenyl]-3-[di-(trifluoromethyl)-hydroxy-methyl]-4,5-dihydro-1H-pyrazole] displayed an Emax of 49 fold and an EC50 of 368 nM.

For the compound `CNCCCS(=O)(=O)c1cccc(-c2cccc(N3N=C(C(F)(F)C(F)(F)F)CC3c3ccc(F)cc3F)c2)c1.Cl` (stereo not drawn) [Example 212, 5-(2,4-difluoro-phenyl)-1-[3′-(3-methylamino-propane-1-sulfonyl)-biphenyl-3-yl]-3-pentafluoroethyl-4,5-dihydro-1H-pyrazole hydrochloride], the Emax is on record as 9 fold and the response was half-maximal at 1620 nM (EC50).

In turn, `CS(=O)(=O)c1ccc(-c2ccc(C3CC(C(O)(C(F)(F)F)C(F)(F)F)=NN3c3ccccc3Cl)cc2)cc1` (stereo not drawn) [Example 244, 1-(2-chloro-phenyl)-5-[4′-(methanesulfonyl)-biphenyl-4-yl]-3-[di-(trifluoromethyl)-hydroxy-methyl]-4,5-dihydro-1H-pyrazole] had an Emax of 100 fold and an EC50 of 298 nM.

As to `COc1ccc(-c2cc(C3CC(C(F)(F)C(F)(F)F)=NN3c3ccc(F)cc3F)ccc2F)cn1` (stereo not drawn) [Example 131, 1-(2,4-difluoro-phenyl)-5-[4-fluoro-3-(6-methoxy-pyridin-3-yl)-phenyl]-3-pentafluoroethyl-4,5-dihydro-1H-pyrazole], the Emax was found to be 45 fold and the EC50 was found to be 12800 nM.

For the compound `CS(=O)(=O)N1CC=C(c2ccc(C3CC(C(O)(C(F)(F)F)C(F)(F)F)=NN3c3ccccc3Cl)s2)CC1` (stereo not drawn) [Example 418, 1-(2-chloro-phenyl)-5-[5-(1-methanesulfonyl-1,2,3,6-tetra hydropyridin-4-yl)-thiophen-2-yl]-3-[di-(trifluoromethyl)-hydroxy-methyl]-4,5-dihydro-1H-pyrazole], the Emax is 106 fold and the midpoint of the response, the EC50, lay at 373 nM.

`COc1ccc(-c2ccc(C3CC(C(O)(C(F)(F)F)C(F)(F)F)=NN3c3ccccc3Cl)cc2F)cn1` (stereo not drawn) [Example 368, 1-(2-chloro-phenyl)-5-[3-fluoro-4-(6-methoxy-pyridin-3-yl)-phenyl]-3-[di-(trifluoromethyl)-hydroxy-methyl]-4,5-dihydro-1H-pyrazole] returned an Emax of 57 fold and an EC50 of 1920 nM.

Compound `CS(=O)(=O)c1cccc(-c2ccnc(C3CC(C(F)(F)C(F)(F)F)=NN3c3ccc(F)cc3F)c2)c1` (stereo not drawn) [Example 177, 1-(2,4-difluoro-phenyl)-5-[4-(3-methanesulfonyl-phenyl)-pyridin-2-yl]-3-pentafluoroethyl-4,5-dihydro-1H-pyrazole] displayed an Emax of 57 fold and an EC50 of 26 nM.

Compound `CN(C)S(=O)(=O)c1cccc(-c2ccc(C3CC(C(O)(C(F)(F)F)C(F)(F)F)=NN3c3ccccc3Cl)cc2)c1` (stereo not drawn) [Example 284, 1-(2-chloro-phenyl)-5-(3′-dimethylsulfamoyl-biphenyl-4-yl)-3-[di-(trifluoromethyl)-hydroxy-methyl]-4,5-dihydro-1H-pyrazole] had an Emax of 56 fold and an EC50 of 635 nM.

Compound `CN(C)S(=O)(=O)N1CCN(c2ccc(C3CC(C(O)(C(F)(F)F)C(F)(F)F)=NN3c3ccccc3Cl)cc2)CC1` (stereo not drawn) [Example 316, 1-(2-chloro-phenyl)-5-[4-(4-dimethylsulfamoyl-piperazin-1-yl)-phenyl]-3-[di-(trifluoromethyl)-hydroxy-methyl]-4,5-dihydro-1H-pyrazole] showed an Emax of 43 fold and an EC50 of 706 nM.

The compound `CS(=O)(=O)Nc1cccc(-c2ccc(C3CC(C(O)(C(F)(F)F)C(F)(F)F)=NN3c3ccccc3Cl)cc2)c1` (stereo not drawn) [Example 310, 5-(3′-methanesulfonyl-aminobiphenyl-4-yl)-1-(2-chloro-phenyl)-3-[di-(trifluoromethyl)-hydroxy-methyl]-4,5-dihydro-1H-pyrazole] gave an Emax of 78 fold and an EC50 of 1150 nM.

Consider `CN(CCCS(=O)(=O)c1cccc(-c2ccc(C3CC(C(O)(C(F)(F)F)C(F)(F)F)=NN3c3ccc(F)cc3F)cc2)c1)C(=O)OC(C)(C)C` (stereo not drawn) [Example 395, 5-{3′-[3-(N-BOC-N-methyl-amino)-propane-1-sulfonyl]-biphenyl-4-yl}-1-(2,4-difluoro-phenyl)-3-(di-(trifluoromethyl)-hydroxy-methyl)-4,5-dihydro-1H-pyrazole], for which the Emax is listed as 83 fold and the EC50 turned out to be 0.4 nM.

The compound `CCOc1ccc(-c2ccc(C3CC(C(O)(C(F)(F)F)C(F)(F)F)=NN3c3ccccc3Cl)cc2)cn1` (stereo not drawn) [Example 269, 1-(2-chloro-phenyl)-5-[4-(6-ethoxy-pyridin-3-yl)-phenyl]-3-[di-(trifluoromethyl)-hydroxy-methyl]-4,5-dihydro-1H-pyrazole] returned an Emax of 44 fold and an EC50 of 7930 nM.

For the compound `CCS(=O)(=O)N1CCCN(c2ccc(C3CC(C(O)(C(F)(F)F)C(F)(F)F)=NN3c3ccccc3Cl)cc2)CC1` (stereo not drawn) [Example 323, 1-(2-chloro-phenyl)-5-[4-(4-ethanesulfonyl-homopiperazin-1-yl)-phenyl]-3-[di-(trifluoromethyl)-hydroxy-methyl]-4,5-dihydro-1H-pyrazole], the Emax is recorded as 54 fold and the EC50 was 344 nM.
